# The source made the active and inactive calls. No cut-off for these calls is given here.
# Biological target: T1, P2X purinoceptor 3 (Rattus norvegicus) (UniProt P49654)
# T1 sequence (whole entry): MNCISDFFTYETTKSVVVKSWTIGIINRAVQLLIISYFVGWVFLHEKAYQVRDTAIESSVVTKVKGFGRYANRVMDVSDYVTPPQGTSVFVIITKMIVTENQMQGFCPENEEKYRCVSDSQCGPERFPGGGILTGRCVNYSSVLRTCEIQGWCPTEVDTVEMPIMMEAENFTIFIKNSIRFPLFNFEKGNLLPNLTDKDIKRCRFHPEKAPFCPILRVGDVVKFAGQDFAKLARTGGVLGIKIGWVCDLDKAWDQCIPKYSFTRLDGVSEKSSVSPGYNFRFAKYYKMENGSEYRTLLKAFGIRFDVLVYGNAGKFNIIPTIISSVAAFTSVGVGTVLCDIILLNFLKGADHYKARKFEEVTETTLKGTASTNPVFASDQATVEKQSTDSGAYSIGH
# Experiment: Antagonist activity against rat P2X3 receptor expressed in CHOK1 cells assessed as inhibition of alpha,beta-meATP-induced calcium response incubated for 20 mins by Fluo-3AM dye based FLIPR assay
# Type: functional, cell-based
# Conditions: CHO-K1
row,SMILES,inhibition
1,CC(C)c1nc2ccccc2cc1Oc1cnc(N)nc1N,Active
2,Cc1cccc2cc(Oc3cnc(N)nc3N)c(C(C)C)nc12,Active
3,Cc1cccc2cc(Oc3cnc(N)nc3N)c(C(C)C)cc12,Active
4,COc1ccc2cc(Oc3cnc(N)nc3N)c(C(C)C)cc2c1,Active
5,Cc1nccc2cc(Oc3cnc(N)nc3N)c(C(C)C)cc12,Active
6,CC(C)c1cc2ncccc2cc1Oc1cnc(NC(CO)CO)nc1N,Active
7,Cc1cccc2cc(C(C)C)c(Oc3cnc(N)nc3N)cc12,Active
8,Cc1ccc2nc(C(C)C)c(Oc3cnc(N)nc3N)cc2c1,Active
9,CC(C)c1cc2cccnc2cc1Oc1cnc(N)nc1N,Active
10,Nc1ncc(Oc2cc3ccccc3cc2I)c(N)n1,Active

# Reference: ChEMBL document CHEMBL3714710, “Diaminopyrimidines as P2X3 and P2X2/3 modulators” (2010)
